Measurements as given in PubChem BioAssay AID1963986 (Molecular Pharmacology Branch, DTP, NCI, 2024).

System: 171881-019-R-J1-PDC tumor spheroid viability
Experiment: Anticancer human tumor 171881-019-R-J1-PDC patient-derived invasive breast carcinoma cell line growth inhibition [PI3K]
Conditions: spheroids with HUVEC and MSC; for viability, T/C: stronger effect = lower value
Procedure, shortened: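 Tumor cells grown as multi-cell spheroids with HUVEC endothelial cells and MSC fibroblast-like stroma were treated with targeted agents combined with inavolisib, alpelisib, duvelisib or copanlisib. Doses fell in half-log steps from near clinical Cmax, else from 10 microM. Viability was measured.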

[1] = curve of first compound, second compound 0.00316 µM
[2] = curve of first compound, second compound 0.01 µM
[3] = curve of first compound, second compound 0.0316 µM
[4] = curve of first compound, second compound 0.1 µM
[5] = curve of first compound, second compound 0.316 µM
[6] = curve of first compound, second compound 1 µM
[7] = second compound 0.00316 µM, first compound 0.0316 µM
[8] = second compound 0.00316 µM, first compound 0.1 µM
[9] = second compound 0.00316 µM, first compound 0.316 µM
[10] = second compound 0.00316 µM, first compound 1 µM
[11] = second compound 0.00316 µM, first compound 3.16 µM
[12] = second compound 0.00316 µM, first compound 10 µM
[13] = second compound 0.01 µM, first compound 0.0316 µM
[14] = second compound 0.01 µM, first compound 0.1 µM
[15] = second compound 0.01 µM, first compound 0.316 µM
[16] = second compound 0.01 µM, first compound 1 µM
[17] = second compound 0.01 µM, first compound 3.16 µM
[18] = second compound 0.01 µM, first compound 10 µM
[19] = second compound 0.0316 µM, first compound 0.0316 µM
[20] = second compound 0.0316 µM, first compound 0.1 µM
[21] = second compound 0.0316 µM, first compound 0.316 µM
[22] = second compound 0.0316 µM, first compound 1 µM
[23] = second compound 0.0316 µM, first compound 3.16 µM
[24] = second compound 0.0316 µM, first compound 10 µM
[25] = second compound 0.1 µM, first compound 0.0316 µM
[26] = second compound 0.1 µM, first compound 0.1 µM
[27] = second compound 0.1 µM, first compound 0.316 µM
[28] = second compound 0.1 µM, first compound 1 µM
[29] = second compound 0.1 µM, first compound 3.16 µM
[30] = second compound 0.1 µM, first compound 10 µM
[31] = second compound 0.316 µM, first compound 0.0316 µM
[32] = second compound 0.316 µM, first compound 0.1 µM
[33] = second compound 0.316 µM, first compound 0.316 µM
[34] = second compound 0.316 µM, first compound 1 µM
[35] = second compound 0.316 µM, first compound 3.16 µM
[36] = second compound 0.316 µM, first compound 10 µM
[37] = second compound 1 µM, first compound 0.0316 µM
[38] = second compound 1 µM, first compound 0.1 µM
[39] = second compound 1 µM, first compound 0.316 µM
[40] = second compound 1 µM, first compound 1 µM
[41] = second compound 1 µM, first compound 3.16 µM
[42] = second compound 1 µM, first compound 10 µM
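Further: spheroids exposed to compound for 7 days before viability read.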
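Wherever viability, T/C is given: 100% = DMSO vehicle-treated spheroids.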

Question: What does the source list for `CC1(C)CCC(Nc2ncc(C(F)(F)F)c(-c3c[nH]c4c(P(C)(C)=O)c(C#N)ccc34)n2)CN1` (stereo not drawn) + CC(Nc1ccc2c(c1)OCCn1cc(N3C(=O)OCC3C(F)F)nc1-2)C(N)=O?
Answer: IC50 [1]: 5040 nM; IC50 [2]: 4480 nM; IC50 [3]: 1660 nM; IC50 [4]: < 31.6 nM; IC50 [5]: < 31.6 nM; IC50 [6]: < 31.6 nM; viability, T/C [7]: 68%; viability, T/C [8]: 70.8%; viability, T/C [9]: 74.5%; viability, T/C [10]: 72.6%; viability, T/C [11]: 81.4%; viability, T/C [12]: 15.6%; viability, T/C [13]: 60.8%; viability, T/C [14]: 65.4%; viability, T/C [15]: 65.8%; viability, T/C [16]: 73.6%; viability, T/C [17]: 66.9%; viability, T/C [18]: 12%; viability, T/C [19]: 44.7%; viability, T/C [20]: 49.7%; viability, T/C [21]: 54.6%; viability, T/C [22]: 57.4%; viability, T/C [23]: 47.4%; viability, T/C [24]: 5.82%; viability, T/C [25]: 34.1%; viability, T/C [26]: 37%; viability, T/C [27]: 39.9%; viability, T/C [28]: 40.4%; viability, T/C [29]: 33.3%; viability, T/C [30]: 2.6%; viability, T/C [31]: 27.7%; viability, T/C [32]: 26.8%; viability, T/C [33]: 30.2%; viability, T/C [34]: 29.4%; viability, T/C [35]: 24.4%; viability, T/C [36]: 1.37%; viability, T/C [37]: 21.3%; viability, T/C [38]: 22.5%; viability, T/C [39]: 23.6%; viability, T/C [40]: 22.9%; viability, T/C [41]: 16.8%; viability, T/C [42]: 1.29%

Question: `Cn1ncnc1[C@H]1c2n[nH]c(=O)c3cc(F)cc(c23)N[C@@H]1c1ccc(F)cc1` was tested. Which viability, T/C (compound 0.000316 µM) did it give?
Answer: The viability, T/C was 92.5% [middle of 4 runs].

Question: What about the viability, T/C (compound 0.001 µM) of the same compound?
Answer: Its viability, T/C is 93.2% [middle of 4 runs].

Question: And the viability, T/C (compound 0.00316 µM)?
Answer: The viability, T/C was 97.5% [middle of 4 runs].

Question: And the viability, T/C (compound 0.01 µM)?
Answer: Its viability, T/C is 98.2% [middle of 4 runs].

Question: What about the viability, T/C (compound 0.0316 µM) of the same compound?
Answer: The viability, T/C was 97.7% [middle of 4 runs].

Question: And the viability, T/C (compound 0.1 µM)?
Answer: Its viability, T/C is 87% [middle of 4 runs].

Question: What about the IC50 (curve of compound) of the same compound?
Answer: The IC50 was greater than 100 nM.

Question: How did the viability, T/C (compound 0.00316 µM) turn out when `COc1c(OCCCN2CCOCC2)ccc2c3n(c(=NC(=O)c4cnc(N)nc4)nc12)CCN3` was run?
Answer: The viability, T/C was 69.1% [middle of 8 runs].

Question: What about the viability, T/C (compound 0.01 µM) of the same compound?
Answer: The viability, T/C was 46.5% [middle of 8 runs].

Question: What about the viability, T/C (compound 0.0316 µM) of the same compound?
Answer: The viability, T/C was 25.6% [middle of 8 runs].

Question: And the viability, T/C (compound 0.1 µM)?
Answer: The viability, T/C was 7.84% [middle of 8 runs].

Question: What about the viability, T/C (compound 0.316 µM) of the same compound?
Answer: Its viability, T/C is 1.95% [middle of 8 runs].

Question: What about the viability, T/C (compound 1 µM) of the same compound?
Answer: The viability, T/C was 1.25% [middle of 7 runs].

Question: What about the IC50 (compound alone, run of 05/09/2023) of the same compound?
Answer: The IC50 was 8.74 nM [middle of 8 runs].

Question: `CC(Cn1ccc(-c2ccc(C#N)c(Cl)c2)n1)NC(=O)c1cc(C(C)O)[nH]n1` (stereo not drawn) + CC(Nc1ccc2c(c1)OCCn1cc(N3C(=O)OCC3C(F)F)nc1-2)C(N)=O was tested. Which IC50 [1] did it give?
Answer: Its IC50 is greater than 10000 nM.

Question: What about the IC50 [2] of the same compound?
Answer: Its IC50 is greater than 10000 nM.

Question: And the IC50 [3]?
Answer: Its IC50 is 4210 nM.

Question: What about the IC50 [4] of the same compound?
Answer: Its IC50 is less than 31.6 nM.

Question: What about the IC50 [5] of the same compound?
Answer: Its IC50 is less than 31.6 nM.

Question: What about the IC50 [6] of the same compound?
Answer: The IC50 was less than 31.6 nM.

Question: What about the viability, T/C [7] of the same compound?
Answer: The viability, T/C was 74.5%.

Question: What about the viability, T/C [8] of the same compound?
Answer: The viability, T/C was 85%.

Question: What about the viability, T/C [9] of the same compound?
Answer: Its viability, T/C is 92%.

Question: And the viability, T/C [10]?
Answer: Its viability, T/C is 93.9%.

Question: What about the viability, T/C [11] of the same compound?
Answer: Its viability, T/C is 88.5%.

Question: And the viability, T/C [12]?
Answer: The viability, T/C was 54.3%.

Question: What about the viability, T/C [13] of the same compound?
Answer: Its viability, T/C is 75.1%.

Question: What about the viability, T/C [14] of the same compound?
Answer: The viability, T/C was 80.9%.

Question: What about the viability, T/C [15] of the same compound?
Answer: The viability, T/C was 78.6%.

Question: What about the viability, T/C [16] of the same compound?
Answer: Its viability, T/C is 80.5%.

Question: And the viability, T/C [17]?
Answer: Its viability, T/C is 83.4%.

Question: And the viability, T/C [18]?
Answer: The viability, T/C was 57.7%.

Question: What about the viability, T/C [19] of the same compound?
Answer: Its viability, T/C is 50.2%.

Question: And the viability, T/C [20]?
Answer: The viability, T/C was 57.4%.

Question: What about the viability, T/C [21] of the same compound?
Answer: Its viability, T/C is 54.4%.

Question: And the viability, T/C [22]?
Answer: Its viability, T/C is 53.7%.

Question: And the viability, T/C [23]?
Answer: Its viability, T/C is 59.2%.

Question: And the viability, T/C [24]?
Answer: Its viability, T/C is 35.1%.

Question: What about the viability, T/C [25] of the same compound?
Answer: Its viability, T/C is 41.1%.

Question: And the viability, T/C [26]?
Answer: Its viability, T/C is 36.2%.

Question: And the viability, T/C [27]?
Answer: The viability, T/C was 38.5%.

Question: What about the viability, T/C [28] of the same compound?
Answer: Its viability, T/C is 39.8%.

Question: What about the viability, T/C [29] of the same compound?
Answer: The viability, T/C was 39%.

Question: What about the viability, T/C [30] of the same compound?
Answer: Its viability, T/C is 27.3%.

Question: And the viability, T/C [31]?
Answer: Its viability, T/C is 26.7%.

Question: And the viability, T/C [32]?
Answer: Its viability, T/C is 26.5%.

Question: What about the viability, T/C [33] of the same compound?
Answer: Its viability, T/C is 25.8%.

Question: And the viability, T/C [34]?
Answer: The viability, T/C was 27%.

Question: What about the viability, T/C [35] of the same compound?
Answer: Its viability, T/C is 25.8%.

Question: What about the viability, T/C [36] of the same compound?
Answer: The viability, T/C was 19.4%.

Question: What about the viability, T/C [37] of the same compound?
Answer: Its viability, T/C is 19.6%.

Question: And the viability, T/C [38]?
Answer: Its viability, T/C is 20.6%.

Question: And the viability, T/C [39]?
Answer: Its viability, T/C is 19.7%.

Question: And the viability, T/C [40]?
Answer: Its viability, T/C is 20.8%.

Question: What about the viability, T/C [41] of the same compound?
Answer: Its viability, T/C is 19.1%.

Question: And the viability, T/C [42]?
Answer: Its viability, T/C is 14.3%.
